{"source": "patent US9695155B2", "about": "“Herbicidal substituted pyrimidinyloxy benzene compounds” (E. I. DU PONT DE NEMOURS AND COMPANY, priority 2013, dated 2017)", "key": {"barnyardgrass [1]": {"tested_on": "barnyardgrass", "test": "Test A postemergence", "format": "in vivo, Echinochloa crus-galli", "details": "Echinochloa crus-galli, post-emergence, 240 h", "summary_of_the_method": "(§1)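 Visual 0–100 rating (100 = complete control) taken about 10 d post-treatment relative to untreated checks. Preemergence: directed soil spray on sown loam/sand pots. Postemergence: seedlings 2–10 cm, 1–2 leaf. Non-phytotoxic solvent formulation with surfactant.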"}, "rice": {"tested_on": "rice", "test": "Test B flooded paddy test", "format": "in vivo, Oryza sativa", "details": "Oryza sativa; Flood, 250 g ai/ha; 0 to 100 scale where 0 is no effect and 100 is complete control; read-out: Plant response rating, Rice", "summary_of_the_method": "(§2)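 Visual ratings on a 0 to 100 scale, where 100 means complete control, compared treated plants with controls after 13 to 15 days in a greenhouse. Treatment went into paddy water 3 cm deep over the soil, applied to plants at the 2-leaf stage.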"}, "chickweed": {"tested_on": "chickweed", "test": "Test C postemergence", "format": "in vivo, Stellaria media", "details": "Stellaria media, post-emergence", "summary_of_the_method": "(§3)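 Greenhouse herbicide screen. Pre: seeded loam/sand, sprayed at planting. Post: 1–4 leaf plants (2–18 cm) in peat-based mix. Formulation: solvent mixture + surfactant, non-phytotoxic. Readout: visual % control vs untreated, 13–15 d; dash = not tested.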"}, "barnyardgrass [2]": {"tested_on": "barnyardgrass", "test": "Test C postemergence", "format": "in vivo, Echinochloa crus-galli", "details": "Echinochloa crus-galli, post-emergence", "summary_of_the_method": "as §3"}, "large (Lg) crabgrass [3]": {"tested_on": "large (Lg) crabgrass", "test": "Test C postemergence", "format": "in vivo, Digitaria sanguinalis", "details": "Digitaria sanguinalis, post-emergence", "summary_of_the_method": "as §3"}, "pigweed": {"tested_on": "pigweed", "test": "Test A postemergence", "format": "in vivo, Amaranthus retroflexus", "details": "Amaranthus retroflexus, post-emergence, 0 to 100 scale where 0 is no effect and 100 is complete control, read-out: Plant response rating, Pigweed", "summary_of_the_method": "as §1"}, "lambsquarters": {"tested_on": "lambsquarters", "test": "Test C postemergence", "format": "in vivo, Chenopodium album", "details": "Chenopodium album, post-emergence", "summary_of_the_method": "as §3"}, "wild oat": {"tested_on": "wild oat", "test": "Test C postemergence", "format": "in vivo, Avena fatua", "details": "Avena fatua, post-emergence", "summary_of_the_method": "as §3"}, "yellow nutsedge": {"tested_on": "yellow nutsedge", "test": "Test C postemergence", "format": "in vivo, Cyperus esculentus", "details": "Cyperus, post-emergence", "summary_of_the_method": "as §3"}, "morningglory": {"tested_on": "morningglory", "test": "Test C postemergence", "format": "in vivo, Ipomoea coccinea", "details": "Ipomoea, post-emergence", "summary_of_the_method": "as §3"}, "barnyardgrass [4]": {"tested_on": "barnyardgrass", "test": "Test B flooded paddy test", "format": "in vivo, Echinochloa crus-galli", "details": "Echinochloa crus-galli; Flood, 250 g ai/ha; 0 to 100 scale where 0 is no effect and 100 is complete control; read-out: Plant response rating, Barnyardgrass", "summary_of_the_method": "as §2"}, "barnyardgrass [5]": {"tested_on": "barnyardgrass", "test": "Test A preemergence", "format": "in vivo, Echinochloa crus-galli", "details": "Echinochloa crus-galli, pre-emergence, 240 h", "summary_of_the_method": "as §1"}, "sedge, umbrella": {"tested_on": "sedge, umbrella", "test": "Test B flooded paddy test", "format": "in vivo, Cyperus difformis", "details": "Cyperus difformis, Flood, 250 g ai/ha; 0 to 100 scale where 0 is no effect and 100 is complete control; read-out: Plant response rating, Sedge, Umbrella", "summary_of_the_method": "as §2"}, "giant foxtail": {"tested_on": "giant foxtail", "test": "Test C postemergence", "format": "in vivo, Setaria faberii", "details": "Setaria faberi, post-emergence", "summary_of_the_method": "as §3"}, "large (Lg) crabgrass [6]": {"tested_on": "large (Lg) crabgrass", "test": "Test A preemergence", "format": "in vivo, Digitaria sanguinalis", "details": "Digitaria sanguinalis, pre-emergence, 240 h", "summary_of_the_method": "as §1"}, "[7]": {"details": "125 g ai/ha, 0 to 100 scale where 0 is no effect and 100 is complete control, read-out: Plant response rating, Barnyardgrass"}}, "data": [{"molecule": "N#Cc1cccc(Oc2ncc(F)cn2)c1-n1cc(C(F)(F)F)cn1", "note": "[Compound 79, 3-[(5-fluoro-2-pyrimidinyl)oxy]-2-[4-(trifluoromethyl)-1H-pyrazol-1-yl]benzonitrile]", "values": [{"measurement": "pest or weed control at 125 g/ha", "setting": "barnyardgrass [1]; [7]", "result": 100, "unit": "%"}, {"measurement": "pest or weed control at 500 g/ha", "setting": "barnyardgrass [1]; 500 g ai/ha, 0 to 100 scale, 0 no effect, 100 complete control, read-out: Plant response rating Barnyardgrass", "result": 100, "unit": "%"}, {"measurement": "plant injury at 250 g/ha", "setting": "rice", "result": 45, "unit": "%"}, {"measurement": "pest or weed control at 125 g/ha", "setting": "chickweed; 125 g ai/ha, postemergence, read-out: Plant response rating (0 to 100), Chickweed", "result": 90, "unit": "%"}, {"measurement": "pest or weed control at 250 g/ha", "setting": "chickweed; 250 g ai/ha, postemergence, read-out: Plant response rating (0 to 100), Chickweed", "result": 95, "unit": "%"}, {"measurement": "pest or weed control at 31 g/ha", "setting": "chickweed; Postemergence, 31 g ai/ha, scale 0 to 100 (0 no effect, 100 complete control), 13 to 15 days, read-out: Plant response rating, Chickweed", "result": 50, "unit": "%"}, {"measurement": "pest or weed control at 62 g/ha", "setting": "chickweed; Postemergence, 62 g ai/ha, scale 0 to 100 (0 no effect, 100 complete control), read-out: Plant response rating, Chickweed", "result": 65, "unit": "%"}, {"measurement": "pest or weed control at 125 g/ha", "setting": "barnyardgrass [2]; 125 g ai/ha, postemergence, read-out: Plant response rating (0 to 100), Barnyardgrass", "result": 20, "unit": "%"}, {"measurement": "pest or weed control at 250 g/ha", "setting": "barnyardgrass [2]; 250 g ai/ha, postemergence, read-out: Plant response rating (0 to 100), Barnyardgrass", "result": 75, "unit": "%"}, {"measurement": "pest or weed control at 31 g/ha", "setting": "barnyardgrass [2]; Postemergence, 31 g ai/ha, scale 0 to 100 (0 no effect, 100 complete control), 13 to 15 days, read-out: Plant response rating, Barnyardgrass", "result": 5, "unit": "%"}, {"measurement": "pest or weed control at 62 g/ha", "setting": "barnyardgrass [2]; Postemergence, 62 g ai/ha, scale 0 to 100 (0 no effect, 100 complete control), read-out: Plant response rating, Barnyardgrass", "result": 5, "unit": "%"}, {"measurement": "pest or weed control at 125 g/ha", "setting": "large (Lg) crabgrass [3]; 125 g ai/ha, postemergence, read-out: Plant response rating (0 to 100), Crabgrass, Large", "result": 30, "unit": "%"}, {"measurement": "pest or weed control at 250 g/ha", "setting": "large (Lg) crabgrass [3]; 250 g ai/ha, postemergence, read-out: Plant response rating (0 to 100), Crabgrass, Large", "result": 65, "unit": "%"}, {"measurement": "pest or weed control at 31 g/ha", "setting": "large (Lg) crabgrass [3]; Postemergence, 31 g ai/ha, scale 0 to 100 (0 no effect, 100 complete control), 13 to 15 days, read-out: Plant response rating, Crabgrass, Large", "result": 20, "unit": "%"}, {"measurement": "pest or weed control at 62 g/ha", "setting": "large (Lg) crabgrass [3]; Postemergence, 62 g ai/ha, scale 0 to 100 (0 no effect, 100 complete control), read-out: Plant response rating, Crabgrass, Large", "result": 20, "unit": "%"}, {"measurement": "pest or weed control at 125 g/ha", "setting": "pigweed; 125 g ai/ha", "result": 100, "unit": "%"}, {"measurement": "pest or weed control at 500 g/ha", "setting": "pigweed; 500 g ai/ha", "result": 100, "unit": "%"}, {"measurement": "pest or weed control at 125 g/ha", "setting": "lambsquarters; 125 g ai/ha, postemergence, read-out: Plant response rating (0 to 100), Lambsquarters", "result": 95, "unit": "%"}, {"measurement": "pest or weed control at 250 g/ha", "setting": "lambsquarters; 250 g ai/ha, postemergence, read-out: Plant response rating (0 to 100), Lambsquarters", "result": 98, "unit": "%"}, {"measurement": "pest or weed control at 31 g/ha", "setting": "lambsquarters; Postemergence, 31 g ai/ha, scale 0 to 100 (0 no effect, 100 complete control), 13 to 15 days, read-out: Plant response rating, Lambsquarters", "result": 90, "unit": "%"}, {"measurement": "pest or weed control at 62 g/ha", "setting": "lambsquarters; Postemergence, 62 g ai/ha, scale 0 to 100 (0 no effect, 100 complete control), read-out: Plant response rating, Lambsquarters", "result": 95, "unit": "%"}, {"measurement": "pest or weed control at 125 g/ha", "setting": "wild oat; 125 g ai/ha, postemergence, read-out: Plant response rating (0 to 100), Oat, Wild", "result": 20, "unit": "%"}, {"measurement": "pest or weed control at 250 g/ha", "setting": "wild oat; 250 g ai/ha, postemergence, read-out: Plant response rating (0 to 100), Oat, Wild", "result": 50, "unit": "%"}, {"measurement": "pest or weed control at 31 g/ha", "setting": "wild oat; Postemergence, 31 g ai/ha, scale 0 to 100 (0 no effect, 100 complete control), 13 to 15 days, read-out: Plant response rating, Oat, Wild", "result": 10, "unit": "%"}, {"measurement": "pest or weed control at 62 g/ha", "setting": "wild oat; Postemergence, 62 g ai/ha, scale 0 to 100 (0 no effect, 100 complete control), read-out: Plant response rating, Oat, Wild", "result": 15, "unit": "%"}, {"measurement": "pest or weed control at 125 g/ha", "setting": "yellow nutsedge; 125 g ai/ha, postemergence, read-out: Plant response rating (0 to 100), Nutsedge, Yellow", "result": 5, "unit": "%"}, {"measurement": "pest or weed control at 250 g/ha", "setting": "yellow nutsedge; 250 g ai/ha, postemergence, read-out: Plant response rating (0 to 100), Nutsedge, Yellow", "result": 25, "unit": "%"}, {"measurement": "pest or weed control at 31 g/ha", "setting": "yellow nutsedge; Postemergence, 31 g ai/ha, scale 0 to 100 (0 no effect, 100 complete control), 13 to 15 days, read-out: Plant response rating, Nutsedge, Yellow", "result": 5, "unit": "%"}, {"measurement": "pest or weed control at 62 g/ha", "setting": "yellow nutsedge; Postemergence, 62 g ai/ha, scale 0 to 100 (0 no effect, 100 complete control), read-out: Plant response rating, Nutsedge, Yellow", "result": 5, "unit": "%"}, {"measurement": "pest or weed control at 125 g/ha", "setting": "morningglory; 125 g ai/ha, postemergence, read-out: Plant response rating (0 to 100), Morningglory", "result": 95, "unit": "%"}, {"measurement": "pest or weed control at 250 g/ha", "setting": "morningglory; 250 g ai/ha, postemergence, read-out: Plant response rating (0 to 100), Morningglory", "result": 98, "unit": "%"}, {"measurement": "pest or weed control at 31 g/ha", "setting": "morningglory; Postemergence, 31 g ai/ha, scale 0 to 100 (0 no effect, 100 complete control), 13 to 15 days, read-out: Plant response rating, Morningglory", "result": 70, "unit": "%"}, {"measurement": "pest or weed control at 62 g/ha", "setting": "morningglory; Postemergence, 62 g ai/ha, scale 0 to 100 (0 no effect, 100 complete control), read-out: Plant response rating, Morningglory", "result": 95, "unit": "%"}, {"measurement": "pest or weed control at 250 g/ha", "setting": "barnyardgrass [4]", "result": 40, "unit": "%"}, {"measurement": "pest or weed control at 125 g/ha", "setting": "barnyardgrass [5]; [7]", "result": 100, "unit": "%"}, {"measurement": "pest or weed control at 500 g/ha", "setting": "barnyardgrass [5]; 500 g ai/ha, 0 to 100 scale, 0 no effect, 100 complete control, approx. 10 days, read-out: Barnyardgrass plant response rating", "result": 100, "unit": "%"}, {"measurement": "pest or weed control at 250 g/ha", "setting": "sedge, umbrella", "result": 95, "unit": "%"}, {"measurement": "pest or weed control at 125 g/ha", "setting": "giant foxtail; 125 g ai/ha, postemergence, read-out: Plant response rating (0 to 100), Foxtail, Giant", "result": 20, "unit": "%"}, {"measurement": "pest or weed control at 250 g/ha", "setting": "giant foxtail; 250 g ai/ha, postemergence, read-out: Plant response rating (0 to 100), Foxtail, Giant", "result": 65, "unit": "%"}, {"measurement": "pest or weed control at 31 g/ha", "setting": "giant foxtail; Postemergence, 31 g ai/ha, scale 0 to 100 (0 no effect, 100 complete control), 13 to 15 days, read-out: Plant response rating, Foxtail, Giant", "result": 10, "unit": "%"}, {"measurement": "pest or weed control at 62 g/ha", "setting": "giant foxtail; Postemergence, 62 g ai/ha, scale 0 to 100 (0 no effect, 100 complete control), read-out: Plant response rating, Foxtail, Giant", "result": 10, "unit": "%"}, {"measurement": "pest or weed control at 125 g/ha", "setting": "large (Lg) crabgrass [6]; 125 g ai/ha, 0 to 100 scale where 0 is no effect and 100 is complete control, read-out: Plant response rating, Crabgrass, Large", "result": 100, "unit": "%"}, {"measurement": "pest or weed control at 500 g/ha", "setting": "large (Lg) crabgrass [6]; 500 g ai/ha, 0 to 100 scale, 0 no effect, 100 complete control, approx. 10 days, read-out: Crabgrass, Large plant response rating", "result": 100, "unit": "%"}]}]}
